# Assay results from patent publication US11963962B2, “Platelet count-agnostic methods of treating myelofibrosis” (Sierra Oncology, Inc., priority 2018, dated 2024).
# What was measured:
# myelofibrosis [1] = test: SIMPLIFY-2 Phase 3 trial: overall survival; type: in vivo, human
# Excerpt: In the SIMPLIFY-2 trial (NCT02101268), the efficacy and safety of MMB was studied in anemic or thrombocytopenic subjects with myelofibrosis who were previously treated with ruxolitinib (RUX). […] Specifically, anemic or thrombocytopenic myelofibrosis patients who had and were previously treated with (RUX) (for at least 28 days) were studied over 24 weeks for response to MMB versus best available treatment (BAT), primarily RUX (89% of patients) but alternatively no treatment or other standard interventions, after which period all patients could receive extended MMB treatment. Previously treated RUX patients who either required red blood cell transfusions or RUX dose reduction with grade 3 thrombocytopenia, anemia, and/or bleeding at grade 3 or worse, with palpable spleen of at least 5 cm and without grade 2 or greater peripheral neuropathy were included in the trial. There was no lower limit for the required baseline platelet count. The primary endpoint was a reduction by at least 35% in the spleen volume at 24 weeks compared with baseline.
# myelofibrosis [2] = test: SIMPLIFY-1 Phase 3 trial: transfusion independence and TD to TI conversion; type: in vivo, human; conditions: for TI rate Responders / TI rate proportion (Wilson 95% CI) / TI rate Absolute risk difference (Newcombe 95% CI): SIMPLIFY 1, week 24; for TI rate Absolute risk difference (Newcombe 95% CI) / TD to 12w rolling TI Absolute risk difference (Newcombe 95% CI) / TD to W24 TI Absolute risk difference (Newcombe 95% CI): MMB vs Control
# Excerpt: The improved outcome from MMB therapy that results from practicing the subject methods can be manifested as an improvement in one or more clinical endpoints (e.g., as described herein), such as anemia response, in spleen response and/or symptom response. By “anemia response” is meant an increase in the patient's hemoglobin level or a patient who was transfusion dependent becoming transfusion independent. Desirably, a minimum increase in hemoglobin of 0.5 g/dL, such as 1.0 g/dL 1.5 g/dL or 2.0 g/dL lasting a minimum of 8 weeks is achieved, which is the level of improvement specified in the International Working Group (IWG) consensus criteria. However, smaller, but still medically significant, increases in hemoglobin are also considered to be within the term “anemia response”. “Transfusion independence” is an anemia endpoint and refers to a subject who required no RBC transfusions over a 12 week period and had no hemoglobin levels less than 8 g/dL to 8.5 g/dL over the 12 week period. In some embodiments, the 12 week period of transfusion independence is the terminal 12 weeks of a 24 week study period. By red blood cell (RBC) transfusion independence rate at week 24 of a study is meant the proportion of subjects who were transfusion independent at week 24, excluding cases associated with clinically overt bleeding.
# In the SIMPLIFY-1 trial (NCT01969838), the efficacy and safety of MMB versus ruxolitinib (RUX) was studied in patients with myelofibrosis who were naïve to treatment with a JAK inhibitor and a platelet count of ≥50×10^9/L. Patients (N=432) with high risk or intermediate-2 risk or symptomatic intermediate-1 risk myelofibrosis received 24 weeks of treatment with 200 mg MMB once daily or 20 mg RUX twice a day (or per label), after which all patients could receive open-label momelotinib. […] The primary endpoint was a reduction by at least 35% in the spleen volume at 24 weeks compared with baseline.
# FIG. 8A: SIMPLIFY-1 study of MMB in a first line population previously untreated with JAKi. For SIMPLIFY-1, the goal was non-inferiority over ruxolitinib (RUX) (MMB: N=215 subjects, and RUX: N=217 subjects). FIG. 8B: SIMPLIFY-2 study of second line population of anemic or thrombocytopenic subjects previously treated with RUX (red blood cell (RBC) transfusions on RUX=64%. RUX dose adjustment for: thrombocytopenia=21%; anemia/hematoma=35%). For SIMPLIFY-2, the goal was superiority over best available treatment (BAT) (MMB: N=104 subjects, and BAT: N=52 subjects). In both SIMPLIFY-1 and SIMPLIFY: Primary endpoint: >=35% reduction in spleen volume at 24 weeks. Secondary endpoints: Total symptom score (TSS) response at 24 weeks. Effects on RBC transfusion requirements.
# The SIMPLIFY 1 clinical trial data was reanalyzed for subgroups of subjects having particular baseline platelet counts in the MMB versus RUX arms of the study.
# Patient data was analyzed according to the following baseline platelet count (PLT) subgroups and in particular according to the threshold PLT of 150×10^9/L: 1) PLT<50×10^9/L; 2) 50×10^9/L≤PLT<100×10^9/L; 3) 100×10^9/L≤PLT<150×10^9/L. The reanalyzed data is presented in Table 13 (SIMPLIFY 1). Selected data is also illustrated in the following figures.
# [3] = SIMPLIFY 1, 50 ≤ PLT < 100 ×10^9/L
# [4] = SIMPLIFY 1, 100 ≤ PLT < 150 ×10^9/L
# [5] = SIMPLIFY-1, switch from Transfusion Dependent to Independent
smiles,measurement,setting,value
"Cl.N#CCNC(=O)c1ccc(-c2ccnc(Nc3ccc(N4CCOCC4)cc3)n2)cc1 [MMB, N-(cyanomethyl)-4-(2-(4-morpholinophenylamino)pyrimidin-4-yl)benzamide]",mOS,myelofibrosis [1],28 months
same,patients with transfusion independence promoted and maintained (TI rate),myelofibrosis [2]; SIMPLIFY 1,66%
same,TI rate Responders,myelofibrosis [2]; 50 ≤ PLT < 100 ×10^9/L,11
same,TI rate proportion (Wilson 95% CI),myelofibrosis [2]; 50 ≤ PLT < 100 ×10^9/L,0.61
same,TI rate Absolute risk difference (Newcombe 95% CI),myelofibrosis [2]; 50 ≤ PLT < 100 ×10^9/L,0.22
same,TI rate Responders,myelofibrosis [2]; 100 ≤ PLT < 150 ×10^9/L,18
same,TI rate proportion (Wilson 95% CI),myelofibrosis [2]; 100 ≤ PLT < 150 ×10^9/L,0.62
same,TI rate Absolute risk difference (Newcombe 95% CI),myelofibrosis [2]; 100 ≤ PLT < 150 ×10^9/L,0.17
same,TI rate Responders,myelofibrosis [2]; ITT,143
same,TI rate proportion (Wilson 95% CI),myelofibrosis [2]; ITT,0.67
same,TI rate Absolute risk difference (Newcombe 95% CI),myelofibrosis [2]; ITT,0.17
same,TD to 12w rolling TI Responders,myelofibrosis [2]; [3],4
same,TD to 12w rolling TI proportion (Wilson 95% CI),myelofibrosis [2]; [3],0.40
same,TD to W24 TI Responders,myelofibrosis [2]; [3],5
same,TD to W24 TI proportion (Wilson 95% CI),myelofibrosis [2]; [3],0.50
same,TD to 12w rolling TI Absolute risk difference (Newcombe 95% CI),myelofibrosis [2]; [3],0.22
same,TD to W24 TI Absolute risk difference (Newcombe 95% CI),myelofibrosis [2]; [3],0.32
same,TD to 12w rolling TI Responders,myelofibrosis [2]; [4],5
same,TD to 12w rolling TI proportion (Wilson 95% CI),myelofibrosis [2]; [4],0.45
same,TD to W24 TI Responders,myelofibrosis [2]; [4],4
same,TD to W24 TI proportion (Wilson 95% CI),myelofibrosis [2]; [4],0.36
same,TD to 12w rolling TI Absolute risk difference (Newcombe 95% CI),myelofibrosis [2]; [4],0.15
same,TD to W24 TI Absolute risk difference (Newcombe 95% CI),myelofibrosis [2]; [4],0.21
same,TD to 12w rolling TI Responders,"myelofibrosis [2]; SIMPLIFY 1, ITT",19
same,TD to 12w rolling TI proportion (Wilson 95% CI),"myelofibrosis [2]; SIMPLIFY 1, ITT",0.36
same,TD to W24 TI Responders,"myelofibrosis [2]; SIMPLIFY 1, ITT",16
same,TD to W24 TI proportion (Wilson 95% CI),"myelofibrosis [2]; SIMPLIFY 1, ITT",0.30
same,TD to 12w rolling TI Absolute risk difference (Newcombe 95% CI),"myelofibrosis [2]; SIMPLIFY 1, ITT",0.11
same,TD to W24 TI Absolute risk difference (Newcombe 95% CI),"myelofibrosis [2]; SIMPLIFY 1, ITT",0.13
same,Week 24 TI rate,"myelofibrosis [2]; SIMPLIFY 1, ITT, all patients",67%
same,Week 24 TI rate,"myelofibrosis [2]; SIMPLIFY 1, ITT, platelets 50-100 (subgroup 2)",61%
same,Week 24 TI rate,"myelofibrosis [2]; SIMPLIFY 1, ITT, platelets 100-150 (subgroup 3)",62%
same,Week 24 TI rate,"myelofibrosis [2]; SIMPLIFY 1, baseline TSS ≥ 6, all patients",67%
same,Week 24 TI rate,"myelofibrosis [2]; SIMPLIFY 1, baseline TSS ≥ 6, platelets 50-100 (subgroup 2)",64%
same,Week 24 TI rate,"myelofibrosis [2]; SIMPLIFY 1, baseline TSS ≥ 6, platelets 100-150 (subgroup 3)",68%
same,Week 24 TI rate,"myelofibrosis [2]; SIMPLIFY 1, baseline TSS ≥ 10, all patients",67%
same,Week 24 TI rate,"myelofibrosis [2]; SIMPLIFY 1, baseline TSS ≥ 10, platelets 50-100 (subgroup 2)",64%
same,Week 24 TI rate,"myelofibrosis [2]; SIMPLIFY 1, baseline TSS ≥ 10, platelets 100-150 (subgroup 3)",68%
same,≥8 week transfusion independence rate,myelofibrosis [2]; [5],58.5%
same,≥12 week transfusion independence rate,myelofibrosis [2]; [5],49.1%
